According to US11224601B1, “Compounds that inhibits MCL-1 protein” (priority 2017, dated 2022):
Read-outs that look alike come from different tables or passages of the source.

Legend:
[1] = system: OPM-2 Luc cells; assay: Tumor Pharmacodynamics (PD) model; assay type: in vivo; conditions: dosed orally to female athymic nude mice inoculated with OPM-2 Luc cells; compared with Reference Compound 1
Excerpt: Tumor Pharmacodynamics (PD)
FIGS. 1-7 illustrate the PD results of the cited Examples. The Reference Compound 1, an internal Amgen MC1-1 inhibitor compound made by one of the general schemes outlined in U.S. Pat. No. 9,562,061, herein incorporated by reference, is (1S,3′R,6′R,7′S,8′E,12′R)-6-chloro-12′-ethyl-7′-methoxy-3,4-dihydro-2H,15′H-spiro[naphthalene-1,22′-[20]oxa[13]thia[1,14]diazatetracyclo[14.7.2.0˜3,6˜.0˜19,24˜]pentacosa[8,16,18,24]tetraen]-15′-one 13′,13′-dioxide

[2] = system: OPM-2 human multiple myeloma cell line; assay: Cell Viability Assay (OPM-2 10 FBS), CellTiter-Glo; assay type: cell-based
Outline: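 Compounds, serially diluted, were left on OPM-2 cells (3000 cells/well, 10% FBS RPMI 1640) for 16 h at 37° C. under 5% CO2.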

[3] = biological target: recombinant human Mcl-1 (Mcl-1/Bim interaction) (Homo sapiens (Human), UniProt Q07820); assay: biochemical; assay type: binding; conditions: cell free Mcl-1:Bim TR-FRET
Sequence of recombinant human Mcl-1 (Mcl-1/Bim interaction) (Q07820 171-327): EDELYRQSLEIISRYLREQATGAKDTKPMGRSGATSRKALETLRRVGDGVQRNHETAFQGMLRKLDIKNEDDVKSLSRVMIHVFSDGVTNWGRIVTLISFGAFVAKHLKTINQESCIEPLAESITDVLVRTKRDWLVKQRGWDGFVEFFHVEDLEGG
Procedure: Cell free Mcl-1:Bim Affinity Assay (Mcl-1 HTRF)
The inhibition of the Mcl-1/Bim interaction was measured using a time-resolved fluorescence resonance energy transfer (TR-FRET) assay. The recombinant human Mcl-1 (C-terminally 6×His tagged Mcl-1 containing residues 171-327) was generated at Amgen Inc (Thousand Oaks, Calif.). A biotinylated peptide derived from human Bim (residues 51-76) was purchased from CPC Scientific (San Jose, Calif.). The TR-FRET assay was conducted in a 384-well white OptiPlate™ (PerkinElmer, Waltham, Mass.) in a total volume of 40 μL. The reaction mixture contained 0.1 nM Mcl-1(171-327), 0.05 nM biotin-Bim(51-76), 0.05 nM LANCE® Eu-W1024 Anti-6×His (PerkinElmer), 0.072 nM Streptavidin-Xlent (Cisbio, Bedford, Mass.), and serially diluted test compounds in the binding buffer of 20 mM Hepes, pH 7.5, 150 mM NaCl, 0.016 mM Brij® 35, and 1 mM dithiothreitol. Test compounds were pre-incubated with Mcl-1(171-327) and biotin-Bim (51-76) for 60 min before addition of the detection mixture (LANCE® Eu-W1024 Anti-6×His and Streptavidin-Xlent). The reaction plates were further incubated overnight and then were read on an Envision® multimode reader (PerkinElmer). Fluorescence signals were measured at 620 nm (40-nm bandwidth) and 665 nm (7.5-nm bandwidth) with a 60 μs delay after excitation at 320 nm (75-nm bandwidth). The signal ratio at 665/620 nm corresponded to the Mcl-1/Bim interaction and was used in all data analyses. The IC50 values of test compounds were determined from duplicate data by analyzing competition curves using a four-parameter sigmoidal model in GraphPad Prism (GraphPad Software, San Diego, Calif.) or in Genedata Screener® (Genedata, Basel, Switzerland).

[4] = system: OPM-2 Luc cells; assay: OPM-2 xenograft efficacy model; assay type: in vivo; conditions: dosed orally to female athymic nude mice inoculated with OPM-2 Luc cells
[5] = Homo sapiens, OPM-2, 16 h, read-out: OPM-2 10% FBS IC50 IP (μM), OPM-2 cells, 10% FBS, 16 h, CellTiter-Glo
[6] = Homo sapiens, OPM-2, 16 h, read-out: OPM-2 10% FBS IC50 IP, OPM-2 cells, 10% FBS, 16 h, CellTiter-Glo
[7] = read-out: OPM-2 10% FBS IC50 IP, OPM-2 cells, 10% FBS, 16 h, CellTiter-Glo

| Molecule | in vivo efficacy in a tumor PD model relative to Reference Compound 1 [1] | IC50 [2, 5] [µM] | IC50 ([3]; read-out: Mcl-1 HTRF IC50) [nM] | IC50 ([3]; read-out: Mel-1 HTRF IC50) [nM] | also measured |
| --- | --- | --- | --- | --- | --- |
| CCO[C@]1(CN2CCN3CCOC[C@@H]3C2)/C=C/C[C@H](C)[C@@H](C)S(=O)(=O)NC(=O)c2ccc3c(c2)N(C[C@@H]2CC[C@H]21)C[C@@]1(CCCc2cc(Cl)ccc21)CO3 [Example 1, (1S,3′R,6′R,7′R,8′E,11′S,12′R)-6-chloro-7′-ethoxy-7′-((9aS)-hexahydropyrazino[2,1-c][1,4]oxazin-8(1H)-ylmethyl)-11′,12′-dimethyl-3,4-dihydro-2H,15′H-spiro[naphthalene-1,22′-[20]oxa[13]thia[1,14]diazatetracyclo[14.7.2.0˜3,6˜.0˜19,24˜]pentacosa[8,16,18,24]tetraen]-15′-one 13′,13′-dioxide] | superior in vivo efficacy | 0.085 |  |  |  |
| CCO[C@]1(CN2CCN(C3COC3)CC2)/C=C/C[C@H](C)[C@@H](C)S(=O)(=O)NC(=O)c2ccc3c(c2)N(C[C@@H]2CC[C@H]21)C[C@@]1(CCCc2cc(Cl)ccc21)CO3 [Example 2, (1S,3′R,6′R,7′R,8′E,11′S,12′R)-6-chloro-7′-ethoxy-11′,12′-dimethyl-7′-((4-(3-oxetanyl)-1-piperazinyl)methyl)-3,4-dihydro-2H,15′H-spiro[naphthalene-1,22′-[20]oxa[13]thia[1,14]diazatetracyclo[14.7.2.0˜3,6˜.0˜19,24˜]pentacosa[8,16,18,24]tetraen]-15′-one 13′,13′-dioxide] | superior in vivo efficacy |  | 0.109 |  |  |
| CO[C@]1(CN2CCN(C3COC3)CC2)/C=C/C[C@H](C)[C@@H](C)S(=O)(=O)NC(=O)c2ccc3c(c2)N(C[C@@H]2CC[C@H]21)C[C@@]1(CCCc2cc(Cl)ccc21)CO3 [Example 3, (1S,3′R,6′R,7′R,8′E,11′S,12′R)-6-chloro-7′-methoxy-11′,12′-dimethyl-7′-((4-(3-oxetanyl)-1-piperazinyl)methyl)-3,4-dihydro-2H,15′H-spiro[naphthalene-1,22′-[20]oxa[13]thia[1,14]diazatetracyclo[14.7.2.0˜3,6˜.0˜19,24˜]pentacosa[8,16,18,24]tetraen]-15′-one 13′,13′-dioxide] | superior in vivo efficacy | 0.06 |  |  |  |
| CO[C@]1(CN2CCN3CCOC[C@@H]3C2)/C=C/C[C@H](C)[C@@H](C)S(=O)(=O)NC(=O)c2ccc3c(c2)N(C[C@@H]2CC[C@H]21)C[C@@]1(CCCc2cc(Cl)ccc21)CO3 [Example 4, (1S,3′R,6′R,7′R,8′E,11′S,12′R)-6-chloro-7′-((9aS)-hexahydropyrazino[2,1-c][1,4]oxazin-8(1H)-ylmethyl)-7′-methoxy-11′,12′-dimethyl-3,4-dihydro-2H,15′H-spiro[naphthalene-1,22′-[20]oxa[13]thia[1,14]diazatetracyclo[14.7.2.0˜3,6˜.0˜19,24˜]pentacosa[8,16,18,24]tetraen]-15′-one 13′,13′-dioxide] | superior in vivo efficacy | 0.094 |  |  |  |
| CCO[C@]1(CN2CCN3CCOC[C@@H]3C2)/C=C/C[C@H](C)[C@@H](CCOC)S(=O)(=O)NC(=O)c2ccc3c(c2)N(C[C@@H]2CC[C@H]21)C[C@@]1(CCCc2cc(Cl)ccc21)CO3 [Example 13, (1S,3′R,6′R,7′R,8′E,11′S,12′R)-6-chloro-7′-ethoxy-7′-((9aS)-hexahydropyrazino[2,1-c][1,4]oxazin-8(1H)-ylmethyl)-12′-(2-methoxyethyl)-11′-methyl-3,4-dihydro-2H,15′H-spiro[naphthalene-1,22′-[20]oxa[13]thia[1,14]diazatetracyclo[14.7.2.0˜3,6˜.0˜19,24˜]pentacosa[8,16,18,24]tetraen]-15′-one 13′,13′-dioxide] | superior in vivo efficacy |  | 0.094 |  | in vivo efficacy in an OPM-2 xenograft efficacy model [4]: in vivo efficacy |
| CCO[C@]1(CN2CCN(C3COC3)CC2)/C=C/C[C@H](C)[C@@H](CCOC)S(=O)(=O)NC(=O)c2ccc3c(c2)N(C[C@@H]2CC[C@H]21)C[C@@]1(CCCc2cc(Cl)ccc21)CO3 [Example 14, (1S,3′R,6′R,7′R,8′E,11′S,12′R)-6-chloro-7′-ethoxy-12′-(2-methoxyethyl)-11′-methyl-7′-((4-(3-oxetanyl)-1-piperazinyl)methyl)-3,4-dihydro-2H,15′H-spiro[naphthalene-1,22′-[20]oxa[13]thia[1,14]diazatetracyclo[14.7.2.0˜3,6˜.0˜19,24˜]pentacosa[8,16,18,24]tetraen]-15′-one 13′,13′-dioxide] | superior in vivo efficacy |  | 0.08 |  |  |
| CO[C@@]1(CN2CCN3CCOC[C@@H]3C2)/C=C/C[C@H](C)[C@@H](C)S(=O)(=O)NC(=O)c2ccc3c(n2)N(C[C@@H]2CC[C@H]21)C[C@@]1(CCCc2cc(Cl)ccc21)CO3 [Example 18, (1S,3′R,6′R,7′S,8′E,11′S,12′R)-6-chloro-7′-((9aS)-hexahydropyrazino[2,1-c][1,4]oxazin-8(1H)-ylmethyl)-7′-methoxy-11′,12′-dimethyl-3,4-dihydro-2H,15′H-spiro[naphthalene-1,22′-[20]oxa[13]thia[1,14,25]triazatetracyclo[14.7.2.0˜3,6˜.0˜19,24˜]pentacosa[8,16,18,24]tetraen]-15′-one 13′,13′-dioxide] | superior in vivo efficacy | 0.022 | 0.06 |  | in vivo efficacy in an OPM-2 xenograft efficacy model [4]: in vivo efficacy |
| CO[C@@]1(C#CCCN2CCS(=O)(=O)CC2)/C=C/C[C@H](C)[C@@H](C)S(=O)(=O)NC(=O)c2ccc3c(c2)N(C[C@@H]2CC[C@H]21)C[C@@]1(CCCc2cc(Cl)ccc21)CO3 [Example 100456, (1S,3′R,6′R,7′S,8′E,11′S,12′R)-6-chloro-7′-(4-(1,1-dioxido-4-thiomorpholinyl)-1-butyn-1-yl)-7′-methoxy-11′,12′-dimethyl-3,4-dihydro-2H,15′H-spiro[naphthalene-1,22′-[20]oxa[13]thia[1,14]diazatetracyclo [14.7.2.0~3,6~.0~19,24~]pentacosa[8,16,18,24]tetraen]-15′-one 13′,13′-dioxide] |  |  |  | 0.565 | IC50 [2, 6]: 1.23 µM |
| CO[C@@]1(C#CCCc2ccncn2)/C=C/C[C@H](C)[C@@H](C)S(=O)(=O)NC(=O)c2ccc3c(c2)N(C[C@@H]2CC[C@H]21)C[C@@]1(CCCc2cc(Cl)ccc21)CO3 [Example 100519, (1S,3′R,6′R,7′S,8′E,11′S,12′R)-6-chloro-7′-methoxy-11′,12′-dimethyl-7′-(4-(4-pyrimidinyl)-1-butyn-1-yl)-3,4-dihydro-2H,15′H-spiro[naphthalene-1,22′-[20]oxa[13]thia[1,14]diazatetracyclo [14.7.2.0~3,6~.0~19,24~]pentacosa[8,16,18,24]tetraen]-15′-one 13′,13′-dioxide] |  |  |  | 0.175 | IC50 [2, 6]: 0.138 µM |
| CO[C@@]1(CC(=O)NC[C@@H](O)C(F)(F)F)/C=C/C[C@H](C)[C@@H](C)S(=O)(=O)NC(=O)c2ccc3c(c2)N(C[C@@H]2CC[C@H]21)C[C@@]1(CCCc2cc(Cl)ccc21)CO3.CO[C@@]1(CC(=O)NC[C@H](O)C(F)(F)F)/C=C/C[C@H](C)[C@@H](C)S(=O)(=O)NC(=O)c2ccc3c(c2)N(C[C@@H]2CC[C@H]21)C[C@@]1(CCCc2cc(Cl)ccc21)CO3 [Example 100563] |  |  |  | 0.065 | IC50 [2, 6]: 0.51 µM |
| (1S,3′R,6′R,7′R,8′E,11′S,12′R)-6-chloro-7′-((9aS)-hexahydropyrazino[2,1-c][1,4]oxazin-8(1H)-ylmethyl)-7′-methoxy-12′-(2-methoxyethyl)-11′-methyl-3,4-dihydro-2H,15′H-spiro[naphthalene-1,22′-[20]oxa[13]thia[1,14]diazatetracyclo[14.7.2.0˜3,6˜.0˜19,24˜]pentacosa[8,16,18,24]tetraen]-15′-one 13,13′-dioxide [Example 11] |  |  |  |  | in vivo efficacy in an OPM-2 xenograft efficacy model [4]: in vivo efficacy; IC50 [2, 7]: 0.051 µM |
| (1S,3′R,6′R,7′R,11′S,12′R)-6-chloro-7′- hydroxy-11′,12′-dimethyl-7′-(1-methyl-4- piperidinyl)-3,4-dihydro-2H,15′H- spiro[naphthalene-1,22′- [20]oxa[13]thia[1,14]diazatetracyclo [14.7.2.0~3,6~.0~19,24~]pentacosa[16,18,24] trien]-15′-one 13′,13′-dioxide [Example 100382] |  |  |  | 0.471 | IC50 [2, 7]: 0.312 µM |
